From ChEMBL document CHEMBL1135834, “First non-ATP competitive glycogen synthase kinase 3 beta (GSK-3beta) inhibitors: thiadiazolidinones (TDZD) as potential drugs for the treatment of Alzheimer's disease” (J Med Chem, 2002)

What was measured:
[1] = Inhibition of catalytic subunit of protein kinase A (PKA) from bovine heart; parameters: species or system Bos taurus
[2] = molecular target: Casein kinase II (Homo sapiens) (UniProt P67870+P68400+P19784); assay: Specific activity against Casein kinase II (CK II); type: protein-complex assay; conditions: Bos taurus
[3] = molecular target: Cyclin-dependent kinase 1/cyclin B (Homo sapiens, UniProt P06493); assay: Inhibition of Cyclin dependent kinase 1-cyclinB; type: protein-complex assay
[4] = species on record: Bos taurus; assay: Specific activity against Protein kinase A (PKA) from bovine heart
[5] = molecular target: Cyclin-dependent kinase 1/cyclin B (Homo sapiens) (UniProt P06493+P14635+Q8WWL7+O95067); assay: Specific activity against Cyclin dependent kinase 1-cyclin B; type: protein-complex assay

Which IC50 [1] does the source give for `Cn1sc(=O)n(Cc2ccccc2)c1=O` here?
The IC50 was over 100 µM.

What about the Specific activity (uM Pi/min/mg protein) [2] of the same compound?
The Specific activity (uM Pi/min/mg protein) was 0.4.

What about the IC50 [3] of the same compound?
Its IC50 is over 100 µM.

And the Specific activity (nM Pi min-1 (mg of protein)-1) [4]?
The Specific activity (nM Pi min-1 (mg of protein)-1) was 4.

And the Specific activity (nM Pi min-1 (mg of protein)-1) [5]?
Its Specific activity (nM Pi min-1 (mg of protein)-1) is 0.4.
